Patent US6720353B2, “Plant proanthocyanidin extract effective at inhibiting adherence of bacteria with p-type fimbriae to surfaces” (priority 1997, dated 2004)

What was measured:
P-type E. coli [1] = experiment: Hemagglutination assay: inhibition of P-type E. coli-induced agglutination of A+ human red blood cells (HRBC); format: cell-based; settings: for Inhibition of agglutination, HRBC: P-type E. coli, A+ human red blood cells, neutral pH
Experimental: (§1) Sixty E. coli strains were isolated from the urine of human and animal (dog and cat) patients suffering from urinary tract infections. After determining the fimbrial type of each strain, 5 strains specific for P-type fimbriae, and 5 strains specific for type 1 fimbriae were selected for use in bioactivity testing. Bacterial strains were subcultured in tryptose broth at 37° C. for 16 h. P-type strains were transferred to colonization factor agar (CFA) plates and grown overnight at 37° C. to enhance production of P-type fimbriae. Strains were harvested by centrifugation, washed once and suspended in phosphate-buffered saline solution (PBS) at pH 7.0 at a concentration of 5×10^8 bacteria/mL. […] Therefore, mixtures of P-type strains were used to test for P-type bioactivity, and mixtures of type 1 strains were used to test for type 1 bioactivity. Strains were kept frozen at −70° C. in tryptose broth (30% glycerol) for long-term storage.

P-type E. coli [2] = experiment: Latex bead agglutination test (beads coated with synthetic P-type receptor analog Galα1→4Galβ); format: cell-based; settings: for Inhibition of agglutination, P-Receptor: P-type E. coli, latex beads coated with P-type receptor analog
Experimental: as §1
The fractions were also tested in the P-type receptor bioassay of de Man et al., 1987, J. Clin. Microbiol. 25(2):401-406. Dried Fractions 1-8 were dissolved in PBS, neutralized, and mixed with P-type bacterial suspensions (30 μl fraction to 10 μl of bacterial suspension) on a polystyrene 24-well plate and incubated for 10 min on a rotary shaker. Latex beads coated with a synthetic P-type receptor analog (Galα1→4Galβ) (BACH test, Kabi Vitrum, Stockholm, Sweden) suspended in water at a concentration of 5×10^9 beads/mL were added (10 μl) to each well and incubation continued for 20 min on the rotary shaker. […] (4) uncoated beads and test fractions, and (5) bacteria, coated beads and epicatechin trimer. The control to show agglutination consisted of bacteria and coated beads.

type 1 E. coli [3] = experiment: Hemagglutination assay with guinea pig red blood cells (GPRBC); format: cell-based
Experimental: as §1
The inhibition of adherence of type 1 E. coli by the various fractions was tested according to hemagglutination assay for P-type bacteria, except guinea pig red blood cells (GPRBC) were used in place of HRBC. The results are shown in Table 4 under the column GPRBC using the same scoring system as described above.

type 1-fimbriated E coli = experiment: Yeast (Saccharomyces cerevisiae) agglutination assay; format: cell-based; settings: for Inhibition of agglutination, Yeast Cells: type 1 E. coli, S. cerevisiae
Experimental: as §1
The fractions were also tested in the bioassay of Eschdat et al., 1978, Biochem. Biophys. Res. Commmun. 85:1551-1559, using yeast cells. Yeast cultures of Saccharomyces cerevisiae were grown in Sabouraud dextrose broth and incubated for 24 hr at 38° C. Yeast cells were transferred to Sabouraud dextrose agar plates and grown under the same conditions. Cells were harvested, washed and suspended in PBS at a concentration of 4×10^8 cells/mL. Ten μl of type 1-fimbriated E coli were mixed with neutralized test fractions (30 μl) in a 24-well polystyrene plate and incubated for 10 min on a rotary shaker. Yeast cell suspension (10 μl) was added to each well and incubated for 5 min. […] The control to show agglutination consisted of bacteria and yeast. Tie results are shown in Table 4 under the column “Yeast Cells” using the same scoring system as described above.

type 1 E. coli [4] = settings: cited from earlier work

Epicatechin Trimer
Inhibition of agglutination, HRBC (P-type E. coli [1]): + | Agglutination in control well (P-type E. coli [1]; bacteria, HRBC and standard): no agglutination or complete inhibition of agglutination | Inhibition of agglutination, P-Receptor (P-type E. coli [2]): + | Agglutination in control well (P-type E. coli [2]; bacteria, coated beads and standard): no agglutination or complete inhibition of agglutination | Inhibition of agglutination, GPRBC (type 1 E. coli [3]): − | Inhibition of agglutination, Yeast Cells (type 1-fimbriated E coli): −

O=C[C@@H](O)[C@@H](O)[C@H](O)[C@H](O)CO [1% D-Mannose, D-Mannose]
Inhibition of agglutination, HRBC (P-type E. coli [1]): − | Inhibition of agglutination, P-Receptor (P-type E. coli [2]): − | Inhibition of agglutination, GPRBC (type 1 E. coli [3]): + | Agglutination in control well (type 1-fimbriated E coli; bacteria, yeast and 1% D-mannose): no agglutination or complete inhibition of agglutination | Inhibition of agglutination, Yeast Cells (type 1-fimbriated E coli): +

O=C(CO)[C@@H](O)[C@H](O)[C@H](O)CO [fructose]
Inhibition of type 1 E. coli to uroepithelial cells (type 1 E. coli [4]): responsible for the inhibition
